Data: the supplement of paper PMC10307832

The cell lines below were run with O=C(Nc1cc(C(F)(F)F)cc(C(F)(F)F)c1)c1cc(Cl)ccc1O [IMD-0354] + N=C(N)NC(=N)NCCc1ccccc1 [Phenformin] (partner 250 µM) (assay: relative viability (nuclei count vs DMSO), 5 days (fraction); higher = more cells survive). Details: first compound 0.04 µM.
Procedure, shortened: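 Relative viability is defined as nuclei in treated wells over nuclei in vehicle wells. Duplicate plates were run and medians reported. Lung cancer cell lines in 1536-well plates were dosed by pin tool one day after seeding, with one drug or with a fixed anchor-drug dose plus five library-drug doses (not always all listed) in √10 steps, and nuclei were counted after 5 days.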
BEN showed a relative viability of 0.248.
HARA showed a relative viability of 0.422.
With HCC-78 the relative viability was 0.667.
NCI-H322M gave a relative viability of 0.865.
LCLC-97TM1 showed a relative viability of 0.43.
In the case of NCI-H2009, the relative viability is reported as 0.502.
A-427 showed a relative viability of 0.379.
Work on NCI-H441 yielded a relative viability of 0.79.
Work on NCI-H661 yielded a relative viability of 0.268.
NCI-H1734 was tested, and the relative viability was 0.393.
In the case of NCI-H460, the relative viability is reported as 0.514.
NCI-H2347 gave a relative viability of 0.396.
For SW 1573, the relative viability was 0.397.
Cell Line NCI-H1793 has a relative viability of 0.386.
201T was tested, and the relative viability was 0.524.
With NCI-H1915 the relative viability was 0.37.
Cell Line HCC-827 has a relative viability of 0.411.
With LXF-289 the relative viability was 0.548.
NCI-H23 showed a relative viability of 0.811.
For NCI-H647, the relative viability was 0.784.
Cell Line CAL-12T has a relative viability of 0.623.
In the case of NCI-H1651, the relative viability is reported as 0.35.
In the case of EPLC-272H, the relative viability is reported as 0.34.

Same assay, conditions: first compound 0.1265 µM
For HOP-62, the relative viability was 0.482.
HCC-44 was tested, and the relative viability was 0.32.
Work on SW 900 yielded a relative viability of 0.48.
Cell Line LU99A has a relative viability of 0.826.
In the case of BEN, the relative viability is reported as 0.267.
HARA showed a relative viability of 0.47.
Cell Line HCC-78 has a relative viability of 0.697.
Cell Line NCI-H322M has a relative viability of 0.796.
LCLC-97TM1 was tested, and the relative viability was 0.451.
NCI-H2009 showed a relative viability of 0.324.
Cell Line A-427 has a relative viability of 0.209.
NCI-H441 gave a relative viability of 0.693.
NCI-H661 showed a relative viability of 0.249.
Work on NCI-H1734 yielded a relative viability of 0.284.
NCI-H460 gave a relative viability of 0.365.
NCI-H2347 gave a relative viability of 0.381.
SW 1573 was tested, and the relative viability was 0.265.
In the case of NCI-H1793, the relative viability is reported as 0.344.
201T gave a relative viability of 0.465.
For NCI-H1915, the relative viability was 0.31.
Work on HCC-827 yielded a relative viability of 0.353.
Work on LXF-289 yielded a relative viability of 0.504.
For NCI-H23, the relative viability was 0.81.
In the case of NCI-H647, the relative viability is reported as 0.376.
CAL-12T showed a relative viability of 0.512.
In the case of NCI-H1651, the relative viability is reported as 0.22.
With EPLC-272H the relative viability was 0.199.

Same assay, conditions: first compound 0.4 µM
Cell Line HOP-62 has a relative viability of 0.363.
HCC-44 gave a relative viability of 0.193.
With SW 900 the relative viability was 0.302.
LU99A was tested, and the relative viability was 0.417.
With BEN the relative viability was 0.229.
Work on HARA yielded a relative viability of 0.154.
With HCC-78 the relative viability was 0.398.
NCI-H322M gave a relative viability of 0.378.
With LCLC-97TM1 the relative viability was 0.234.
NCI-H2009 was tested, and the relative viability was 0.228.
For A-427, the relative viability was 0.247.
In the case of NCI-H441, the relative viability is reported as 0.45.
In the case of NCI-H661, the relative viability is reported as 0.224.
In the case of NCI-H1734, the relative viability is reported as 0.257.
NCI-H460 showed a relative viability of 0.103.
Work on NCI-H2347 yielded a relative viability of 0.272.
In the case of SW 1573, the relative viability is reported as 0.18.
NCI-H1793 showed a relative viability of 0.157.
201T gave a relative viability of 0.322.
For NCI-H1915, the relative viability was 0.26.
HCC-827 showed a relative viability of 0.228.
LXF-289 showed a relative viability of 0.329.
In the case of NCI-H23, the relative viability is reported as 0.313.
With NCI-H647 the relative viability was 0.283.
CAL-12T gave a relative viability of 0.252.
Work on NCI-H1651 yielded a relative viability of 0.198.
EPLC-272H gave a relative viability of 0.304.

Same assay, conditions: first compound 1.265 µM
Work on HOP-62 yielded a relative viability of 0.12.
HCC-44 was tested, and the relative viability was 0.139.
SW 900 was tested, and the relative viability was 0.185.
LU99A showed a relative viability of 0.218.
With BEN the relative viability was 0.179.
Cell Line HARA has a relative viability of 0.0947.
HCC-78 was tested, and the relative viability was 0.439.
NCI-H322M gave a relative viability of 0.277.
Cell Line LCLC-97TM1 has a relative viability of 0.18.
NCI-H2009 showed a relative viability of 0.137.
A-427 was tested, and the relative viability was 0.105.
NCI-H441 showed a relative viability of 0.177.
Work on NCI-H661 yielded a relative viability of 0.198.
With NCI-H1734 the relative viability was 0.165.
Cell Line NCI-H460 has a relative viability of 0.0203.
In the case of NCI-H2347, the relative viability is reported as 0.149.
For SW 1573, the relative viability was 0.0898.
In the case of NCI-H1793, the relative viability is reported as 0.163.
With 201T the relative viability was 0.286.
NCI-H1915 was tested, and the relative viability was 0.182.
In the case of HCC-827, the relative viability is reported as 0.178.
For LXF-289, the relative viability was 0.124.
Work on NCI-H23 yielded a relative viability of 0.198.
Work on NCI-H647 yielded a relative viability of 0.129.
CAL-12T showed a relative viability of 0.117.
With NCI-H1651 the relative viability was 0.106.
For EPLC-272H, the relative viability was 0.0841.

Same assay, conditions: first compound 4 µM
In the case of HOP-62, the relative viability is reported as 0.165.
HCC-44 gave a relative viability of 0.105.
SW 900 was tested, and the relative viability was 0.202.
In the case of LU99A, the relative viability is reported as 0.265.
Work on BEN yielded a relative viability of 0.174.
HARA was tested, and the relative viability was 0.0925.
Cell Line HCC-78 has a relative viability of 0.292.
NCI-H322M showed a relative viability of 0.375.
LCLC-97TM1 showed a relative viability of 0.126.
NCI-H2009 showed a relative viability of 0.15.
A-427 gave a relative viability of 0.112.
Cell Line NCI-H441 has a relative viability of 0.262.
NCI-H661 was tested, and the relative viability was 0.232.
NCI-H1734 showed a relative viability of 0.129.
Work on NCI-H460 yielded a relative viability of 0.0155.
With NCI-H2347 the relative viability was 0.218.
In the case of SW 1573, the relative viability is reported as 0.103.
NCI-H1793 showed a relative viability of 0.147.
Work on 201T yielded a relative viability of 0.303.
NCI-H1915 gave a relative viability of 0.156.
Work on HCC-827 yielded a relative viability of 0.174.
LXF-289 was tested, and the relative viability was 0.0658.
NCI-H23 gave a relative viability of 0.189.
Work on NCI-H647 yielded a relative viability of 0.0531.
In the case of CAL-12T, the relative viability is reported as 0.134.
Cell Line NCI-H1651 has a relative viability of 0.0771.
For EPLC-272H, the relative viability was 0.0653.
